According to ChEMBL document CHEMBL5034044, “Novel Compounds for Targeted Degradation of BRD9 and Their Use for Treating Cancer” (ACS Med Chem Lett, 2022):

What follows are molecules tested against T1, Bromodomain-containing protein 9 (Homo sapiens, UniProt Q9H8M2) (assay: Induction of degradation of BRD9 (unknown origin) assessed as protein degradation measured after 2 hrs by HiBit Lytic assay).
T1 sequence (Q9H8M2 whole entry): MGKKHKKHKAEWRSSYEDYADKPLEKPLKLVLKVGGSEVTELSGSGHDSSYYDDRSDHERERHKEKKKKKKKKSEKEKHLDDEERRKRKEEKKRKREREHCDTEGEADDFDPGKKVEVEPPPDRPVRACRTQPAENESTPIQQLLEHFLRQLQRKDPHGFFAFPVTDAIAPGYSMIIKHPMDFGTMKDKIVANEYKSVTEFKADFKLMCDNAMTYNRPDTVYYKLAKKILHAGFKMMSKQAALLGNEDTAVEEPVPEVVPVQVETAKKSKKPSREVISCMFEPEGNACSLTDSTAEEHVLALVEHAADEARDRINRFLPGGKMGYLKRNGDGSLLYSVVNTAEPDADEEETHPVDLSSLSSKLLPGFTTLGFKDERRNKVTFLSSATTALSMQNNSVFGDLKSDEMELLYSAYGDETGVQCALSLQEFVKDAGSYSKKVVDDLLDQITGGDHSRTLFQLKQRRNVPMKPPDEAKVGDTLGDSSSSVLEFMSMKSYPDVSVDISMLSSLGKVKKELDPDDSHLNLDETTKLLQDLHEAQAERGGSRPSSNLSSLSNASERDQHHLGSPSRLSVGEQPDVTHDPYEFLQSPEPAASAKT

DC50, < 100 nM:
COc1cc(-c2cn(C)c(=O)c3[nH]ncc23)cc(OC)c1CN1CCc2c(CN3CCC(c4ccc(NC5CCC(=O)NC5=O)cc4)C(F)(F)C3)csc2C1 (stereo unspecified)
COc1cc(-c2cn(C)c(=O)c(C)c2C)cc(OC)c1CN1CCN(C(=O)CC2CCN(c3ccc(NC4CCC(=O)NC4=O)cc3C(F)(F)F)CC2)CC12CC2 (stereo unspecified)
COc1cc(-c2cn(C)c(=O)c(C)c2C)cc(Cl)c1CN1CCC(N2CCN(c3ccc(NC4CCC(=O)NC4=O)cc3F)CC2)C(F)(F)C1 (stereo unspecified)
COc1cc(-c2cn(C)c(=O)c3[nH]ncc23)cc(OC)c1CN1CCC2(CC1)CN(C(=O)CN1CCC(c3ccc(NC4CCC(=O)NC4=O)cc3)CC1)C2 (stereo unspecified)
CC(c1ccc(-c2cn(C)c(=O)c3cc(F)ccc23)cc1OC(F)(F)F)N1CCC(C2CCN(c3ccc(NC4CCC(=O)NC4=O)cc3F)CC2)CC1 (stereo unspecified)
COc1cc(-c2cn(C)c(=O)c3cnccc23)c(Cl)cc1CN1CCC(N2CCN(c3ccc(NC4CCC(=O)NC4=O)cc3F)CC2)C(F)(F)C1 (stereo unspecified)
